According to patent US7994185B2, “Benzene sulfonamide thiazole and oxazole compounds” (Glaxo Smith Kline LLC, priority 2008, dated 2011):
Read-outs that look alike come from different tables or passages of the source.

How the values were obtained:
[1] = tested on: Human colon tumor cells (Colo205); test: Cell growth inhibition assay (CellTiter-Glo), Colo205; assay type: cell-based
Method in brief: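 Read-out was CellTiter-Glo luminescence (total ATP as a cell-number surrogate), expressed as % inhibition against DMSO vehicle wells. Before that, cells grown in RPMI/10% FBS were treated for 3 days at 37 °C with ten 1:3-spaced compound concentrations, final DMSO 0.2%.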

[2] = target: T1, BRAFV600E full-length (amino acids 2-766) (Homo sapiens, UniProt P15056, V600E); test: B-Raf Accelerated MEK ATPase assay (BRAMA); assay type: biochemical; details: categorized
T1 construct: His6-tagged BRAFV600E full-length (amino acids 2-766); His6; made in house; host or cells: baculovirus expression system (insect cells)
Method in brief: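 Coupled-enzyme readout: ADP generated by MEK-mediated ATP hydrolysis, uncoupled from ERK phosphorylation, is linked to NADH oxidation through pyruvate kinase and lactate dehydrogenase.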

[3] = tested on: Human melanoma cancer cells (SK-MEL-28); test: Cell growth inhibition assay (CellTiter-Glo), SK-MEL-28; assay type: cell-based
[4] = COLO 205, 72 h, Table 2a, 3 days incubation, read-out: Activity in Colo205 Tumor Cells
[5] = COLO 205, Table 2b, later runs, average for the one or more runs, categorized, read-out: IC50 for Colo205
[6] = B-Raf Activity, Table 1a, highest pIC50 for the one or more runs
[7] = B-Raf pIC50, Table 1b, later runs, average pIC50 for the one or more runs
[8] = SK-MEL-28, 72 h, Table 3a, 3 days incubation, read-out: Activity in SK-MEL-28 Tumor Cells
[9] = SK-MEL-28, Table 3b, later runs, average for the one or more runs, categorized, read-out: IC50 for SK-MEL-28
[10] = Table 1b, later runs, average pIC50 for the one or more runs, read-out: B-Raf pIC50 (converted)

T1 sequence (P15056 2-766 V600E): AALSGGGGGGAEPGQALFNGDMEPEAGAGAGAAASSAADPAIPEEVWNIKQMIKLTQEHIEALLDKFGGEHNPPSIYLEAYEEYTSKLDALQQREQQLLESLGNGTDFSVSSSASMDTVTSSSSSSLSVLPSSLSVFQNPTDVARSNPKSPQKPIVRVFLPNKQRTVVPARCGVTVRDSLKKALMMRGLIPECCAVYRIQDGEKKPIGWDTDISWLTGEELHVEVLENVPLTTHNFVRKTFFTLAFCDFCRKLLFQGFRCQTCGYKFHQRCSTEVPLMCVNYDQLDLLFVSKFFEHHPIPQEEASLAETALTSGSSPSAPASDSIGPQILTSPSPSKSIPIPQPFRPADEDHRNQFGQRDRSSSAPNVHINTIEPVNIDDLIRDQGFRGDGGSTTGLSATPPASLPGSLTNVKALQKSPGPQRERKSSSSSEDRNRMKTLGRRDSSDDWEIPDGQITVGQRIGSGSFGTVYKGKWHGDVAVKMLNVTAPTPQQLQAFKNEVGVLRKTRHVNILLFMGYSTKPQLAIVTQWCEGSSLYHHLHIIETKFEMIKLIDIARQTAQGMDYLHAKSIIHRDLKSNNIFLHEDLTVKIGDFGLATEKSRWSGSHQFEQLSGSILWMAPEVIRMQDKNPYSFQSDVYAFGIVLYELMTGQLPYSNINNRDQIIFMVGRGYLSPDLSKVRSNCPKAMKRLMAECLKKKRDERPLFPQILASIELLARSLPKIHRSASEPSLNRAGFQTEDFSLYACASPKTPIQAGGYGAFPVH

Structure (SMILES)	IC50 [1, 4] [nM]	IC50 [1, 5] [nM]	IC50 [2, 6] [nM]	IC50 [2, 7] [nM]	IC50 [3, 8] [nM]	IC50 [3, 9] [nM]	IC50 [2, 10] [nM]
CC(C)(C)c1nc(-c2cccc(NS(=O)(=O)c3cc(F)ccc3F)c2F)c(-c2ccnc(NCCCN3CCCC3=O)n2)s1 [Example 96, N-{3-[2-(1,1-Dimethylethyl)-5-(2-{[3-(2-oxo-1-pyrrolidinyl)propyl]amino}-4-pyrimidinyl)-1,3-thiazol-4-yl]-2-fluorophenyl}-2,5-difluorobenzenesulfonamide]	< 100	< 100	< 100	≤ 3.16	< 100	< 100	
CC(C)(C)c1nc(-c2cccc(NS(=O)(=O)c3cc(F)ccc3F)c2F)c(-c2ccnc(NCCN3CCCC3=O)n2)s1 [Example 97, N-{3-[2-(1,1-Dimethylethyl)-5-(2-{[2-(2-oxo-1-pyrrolidinyl)ethyl]amino}-4-pyrimidinyl)-1,3-thiazol-4-yl]-2-fluorophenyl}-2,5-difluorobenzenesulfonamide]	< 100	100 to 1000	< 100	≤ 3.16	< 100	< 100	
CC(C)(C)c1nc(-c2cccc(NS(=O)(=O)c3cc(F)ccc3F)c2F)c(-c2ccnc(NCCNC(=O)CO)n2)s1 [Example 98, N-{2-([4-[4-(3-{[(2,5-Difluorophenyl)sulfonyl]amino}-2-fluorophenyl)-2-(1,1-dimethylethyl)-1,3-thiazol-5-yl]-2-pyrimidinyl}amino)ethyl]-2-hydroxyacetamide]	< 100	< 100	< 100	≤ 3.16	< 100	< 100	
CS(=O)(=O)N1CCN(c2nc(-c3cccc(NS(=O)(=O)c4cc(F)ccc4F)c3F)c(-c3ccnc(N)n3)s2)CC1 [Example 99, N-(3-{5-(2-Amino-4-pyrimidinyl)-2-[4-(methylsulfonyl)-1-piperazinyl]-1,3-thiazol-4-yl}-2-fluorophenyl)-2,5-difluorobenzenesulfonamide]	100 to 1000	100 to 1000	< 100	≤ 3.16	100 to 1000	100 to 1000	
CS(=O)(=O)N1CCN(c2nc(-c3cccc(NS(=O)(=O)c4c(F)cccc4F)c3F)c(-c3ccnc(N)n3)s2)CC1 [Example 100, N-(3-{5-(2-Amino-4-pyrimidinyl)-2-[4-(methylsulfonyl)-1-piperazinyl]-1,3-thiazol-4-yl}-2-fluorophenyl)-2,6-difluorobenzenesulfonamide]	100 to 1000	100 to 1000	< 100		100 to 1000	100 to 1000	3.16 to 31.6
CS(=O)(=O)N1CCC(c2nc(-c3cccc(NS(=O)(=O)c4cc(F)ccc4F)c3F)c(-c3ccnc(N)n3)s2)CC1 [Example 101, N-(3-{5-(2-Amino-4-pyrimidinyl)-2-[1-(methylsulfonyl)-4-piperidinyl]-1,3-thiazol-4-yl}-2-fluorophenyl)-2,5-difluorobenzenesulfonamide]	< 100	< 100	< 100	≤ 3.16	< 100	< 100	
Nc1nccc(-c2sc(N3CCS(=O)(=O)CC3)nc2-c2cccc(NS(=O)(=O)c3c(F)cccc3F)c2F)n1 [Example 102, N-{3-[5-(2-Amino-4-pyrimidinyl)-2-(1,1-dioxido-4-thiomorpholinyl)-1,3-thiazol-4-yl]-2-fluorophenyl}-2,6-difluorobenzenesulfonamide]	100 to 1000	100 to 1000	< 100		100 to 1000	100 to 1000	3.16 to 31.6
C[C@@H]1CN(c2nc(-c3cccc(NS(=O)(=O)c4cc(F)ccc4F)c3F)c(-c3ccnc(N)n3)s2)C[C@H](C)O1 [Example 103, N-(3-{5-(2-Amino-4-pyrimidinyl)-2-[(2R,6S)-2,6-dimethyl-4-morpholinyl]-1,3-thiazol-4-yl}-2-fluorophenyl)-2,5-difluorobenzenesulfonamide]	< 100	< 100	< 100	≤ 3.16	< 100	< 100	
Nc1nccc(-c2sc(C3CCCCC3)nc2-c2cccc(NS(=O)(=O)c3c(F)cccc3F)c2F)n1 [Example 104, N-{3-[5-(2-Amino-4-pyrimidinyl)-2-cyclohexyl-1,3-thiazol-4-yl]-2-fluorophenyl}-2,6-difluorobenzenesulfonamide]	< 100	< 100	< 100	≤ 3.16	< 100	< 100	
Nc1nccc(-c2sc(N3CCOCC3)nc2-c2c(F)ccc(NS(=O)(=O)c3cc(F)ccc3F)c2F)n1 [Example 105, N-{3-[5-(2-Amino-4-pyrimidinyl)-2-(4-morpholinyl)-1,3-thiazol-4-yl]-2,4-difluorophenyl}-2,5-difluorobenzenesulfonamide]	< 100	< 100	< 100	≤ 3.16	< 100	< 100	
Nc1nccc(-c2sc(N3CCOCC3)nc2-c2c(F)ccc(NS(=O)(=O)c3c(F)cccc3F)c2F)n1 [Example 106, N-{3-[5-(2-Amino-4-pyrimidinyl)-2-(4-morpholinyl)-1,3-thiazol-4-yl]-2,4-difluorophenyl}-2,6-difluorobenzenesulfonamide]	100 to 1000	100 to 1000	< 100		100 to 1000	100 to 1000	3.16 to 31.6
CC(C)(C)c1nc(-c2c(F)ccc(NS(=O)(=O)c3c(F)cccc3F)c2F)c(-c2ccnc(N)n2)s1 [Example 107, N-{3-[5-(2-amino-4-pyrimidinyl)-2-(1,1-dimethylethyl)-1,3-thiazol-4-yl]-2,4-difluorophenyl}-2,6-difluorobenzenesulfonamide]	< 100	< 100	< 100	≤ 3.16	< 100	< 100	
Nc1nccc(-c2oc(N3CCCC3)nc2-c2cccc(NS(=O)(=O)c3c(F)cccc3F)c2)n1 [Example 110, N-{3-[5-(2-Amino-4-pyrimidinyl)-2-(1-pyrrolidinyl)-1,3-oxazol-4-yl]phenyl}-2,6-difluorobenzenesulfonamide]		1000 to 10000	100 to 1000	31.6 to 1000		1000 to 10000	
CC(C)CNc1nccc(-c2oc(N3CCCC3)nc2-c2cccc(NS(=O)(=O)c3c(F)cccc3F)c2)n1 [Example 111, 2,6-Difluoro-N-{3-[5-{2-[(2-methylpropyl)amino]-4-pyrimidinyl}-2-(1-pyrrolidinyl)-1,3-oxazol-4-yl]phenyl}benzenesulfonamide]		1000 to 10000	< 100	31.6 to 1000		1000 to 10000	
CC(C)CNc1nccc(-c2sc(N(C)C)nc2-c2cccc(NS(=O)(=O)c3c(F)cccc3F)c2)n1 [Example 113, N-[3-(2-(Dimethylamino)-5-{2-[(2-methylpropyl)amino]-4-pyrimidinyl}-1,3-thiazol-4-yl)phenyl]-2,6-difluorobenzenesulfonamide]		100 to 1000	< 100	31.6 to 1000		100 to 1000	
CC(C)CNc1nccc(-c2scnc2-c2cccc(NS(=O)(=O)c3c(F)cccc3F)c2)n1 [Example 115, 2,6-Difluoro-N-[3-(5-{2-[(2-methylpropyl)amino]-4-pyrimidinyl}-1,3-thiazol-4-yl)phenyl]benzenesulfonamide]	> 1000	1000 to 10000	> 1000		> 1000	1000 to 10000	3.16 to 31.6
